# US20150291598A1 (NOVARTIS AG, priority 2012, published 2015)
# Tested on: P. falciparum (NF54 or 3D7 strain)
# Assay: Assay for P. falciparum proliferation in infected human blood cells (SYBR Green)
# Assay type: cell-based, Plasmodium falciparum
# Conditions: NF54 or 3D7 infected human erythrocytes, 72 hours; read-out: EC50 (nM), inhibitory efficacy in delaying P. falciparum proliferation in infected human blood cells
# Outline: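 Infected erythrocytes (NF54 or 3D7; final 2.5% hematocrit, 0.3% parasitemia) were incubated with compounds for 72 h at 37 °C in low oxygen (3% O2, 4% CO2, 93% N2).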
row,Structure (SMILES),EC50
1,"C[C@@H](N)C(=O)Nc1ccc(-c2cnc3cnc(C(=O)N(C)c4ccc(C#N)cc4)cn23)cc1 [Compound 282, 3-{4-[(2R)-2-aminopropanamido]phenyl}-N-(4-cyanophenyl)-N-methylimidazo[1,2-a]pyrazine-6-carboxamide]",252 nM

# Same assay, conditions: Plasmodium falciparum, Erythrocyte, 72 h, NF54 or 3D7 infected human erythrocytes, 72 hours; read-out: EC50 (nM), inhibitory efficacy in delaying P. falciparum proliferation in infected human blood cells
row,Structure (SMILES),EC50
1,"CN(C(=O)c1cn2c(-c3ccc(NCC(C)(C)N)cc3)cnc2cn1)c1ccc(C#N)cc1 [Compound 278, 3-{4-[(2-amino-2-methylpropyl)amino]phenyl}-N-(4-cyanophenyl)-N-methylimidazo[1,2-a]pyrazine-6-carboxamide]",784 nM
2,"CC(=O)Nc1ccc(-c2cnc3cnc(C(=O)N(C)c4ccc(Cl)nc4)cn23)cc1 [Compound 279, N-(6-chloropyridin-3-yl)-3-(4-acetamidophenyl)-N-methylimidazo[1,2-a]pyrazine-6-carboxamide]",454 nM
3,"COc1ccc(-c2cnc3cnc(C(=O)N(C)c4ccc(Cl)nc4)cn23)c(F)c1 [Compound 280, N-(6-chloropyridin-3-yl)-3-(2-fluoro-4-methoxyphenyl)-N-methylimidazo[1,2-a]pyrazine-6-carboxamide]",707 nM
4,"CN(C(=O)c1ccc(C#N)cc1)c1cn2c(-c3ccc(C(F)(F)F)cc3)cnc2cn1 [Compound 283, 4-cyano-N-methyl-N-{3-[4-(trifluoromethyl)phenyl]imidazo[1,2-a]pyrazin-6-yl}benzamide]",178 nM
5,"CN(C)CCOc1ccc(-c2cnc3cnc(C(=O)N(C)c4ccc(C#N)cc4)cn23)cc1 [Compound 284, N-(4-cyanophenyl)-3-{4-[2-(dimethylamino)ethoxy]phenyl}-N-methylimidazo[1,2-a]pyrazine-6-carboxamide]",947 nM
6,"CC(C)[C@@H](N)C(=O)Nc1ccc(-c2cnc3cnc(C(=O)N(C)c4ccc(C#N)cc4)cn23)cc1 [Compound 286, 3-{4-[(2R)-2-amino-3-methylbutanamido]phenyl}-N-(4-cyanophenyl)-N-methylimidazo[1,2-a]pyrazine-6-carboxamide]",402 nM
7,"Cc1ccc(N(C)Cc2cn3c(-c4ccc(C(F)(F)F)cc4)cnc3cn2)nc1 [Compound 287, N,5-dimethyl-N-({3-[4-(trifluoromethyl)phenyl]imidazo[1,2-a]pyrazin-6-yl}methyl)pyridin-2-amine]",972 nM
8,"COc1ncc(N(C)C(=O)c2cn3c(-c4ccc(C(F)(F)F)cc4)cnc3cn2)cc1C [Compound 288, N-(6-methoxy-5-methylpyridin-3-yl)-N-methyl-3-[4-(trifluoromethyl)phenyl]imidazo[1,2-a]pyrazine-6-carboxamide]",565 nM
9,"Cc1ccc(C(=O)N(C)c2cn3c(-c4ccc(C(F)(F)F)cc4)cnc3cn2)cc1 [Compound 289, N,4-dimethyl-N-{3-[4-(trifluoromethyl)phenyl]imidazo[1,2-a]pyrazin-6-yl}benzamide]",1500 nM
10,"COc1cccc(N(C)C(=O)c2cn3c(-c4ccc(C(F)(F)F)cc4)cnc3cn2)n1 [Compound 290, N-(6-methoxypyridin-2-yl)-N-methyl-3-[4-(trifluoromethyl)phenyl]imidazo[1,2-a]pyrazine-6-carboxamide]",784 nM
11,"CN(C)CCNC(=O)c1ccc(-c2cnc3cnc(C(=O)N(C)c4ccc(C#N)cc4)cn23)cc1 [Compound 291, N-(4-cyanophenyl)-3-(4-{[2-(dimethylamino)ethyl]carbamoyl}phenyl)-N-methylimidazo[1,2-a]pyrazine-6-carboxamide]",1160 nM
12,"CN(C(=O)c1cn2c(-c3ccc(C(F)(F)F)cc3)cnc2cn1)c1ccc(C#N)cc1F [Compound 293, N-(4-cyano-2-fluorophenyl)-N-methyl-3-[4-(trifluoromethyl)phenyl]imidazo[1,2-a]pyrazine-6-carboxamide]",76 nM
13,"CN(C(=O)N1CCC(C)(C)CC1)c1cn2c(-c3ccc(C(F)(F)F)cc3)cnc2cn1 [Compound 294, N,4,4-trimethyl-N-{3-[4-(trifluoromethyl)phenyl]imidazo[1,2-a]pyrazin-6-yl}piperidine-1-carboxamide]",2120 nM
14,"CN(C(=O)c1cn2c(-c3ccc(NC(=O)CN)nc3)cnc2cn1)c1ccc(C#N)cc1 [Compound 295, 3-[6-(2-aminoacetamido)pyridin-3-yl]-N-(4-cyanophenyl)-N-methylimidazo[1,2-a]pyrazine-6-carboxamide]",237 nM
15,"COc1cc(N(C)C(=O)c2cn3c(-c4ccc(C(F)(F)F)cc4)cnc3cn2)ccn1 [Compound 296, N-(2-methoxypyridin-4-yl)-N-methyl-3-[4-(trifluoromethyl)phenyl]imidazo[1,2-a]pyrazine-6-carboxamide]",1280 nM
16,"Cc1ccc(-c2cnc3cnc(C(=O)N(C)c4ccc(C#N)cc4)cn23)cn1 [Compound 297, N-(4-cyanophenyl)-N-methyl-3-(6-methylpyridin-3-yl)imidazo[1,2-a]pyrazine-6-carboxamide]",1290 nM
17,"CCn1nccc1N(C)C(=O)c1cn2c(-c3ccc(C(F)(F)F)cc3)cnc2cn1 [Compound 298, N-(1-ethyl-1H-pyrazol-5-yl)-N-methyl-3-[4-(trifluoromethyl)phenyl]imidazo[1,2-a]pyrazine-6-carboxamide]",1070 nM
18,"Cc1cc(N(C)C(=O)c2cn3c(-c4ccc(C(F)(F)F)cc4)cnc3cn2)ccn1 [Compound 299, N-methyl-N-(2-methylpyridin-4-yl)-3-[4-(trifluoromethyl)phenyl]imidazo[1,2-a]pyrazine-6-carboxamide]",1130 nM
19,"CN(C(=O)c1cn2c(-c3ccc(NC(C)(C)CNC(=O)OC(C)(C)C)cc3)cnc2cn1)c1ccc(C#N)cc1 [Compound 300, tert-butyl N-{2-[(4-{6-[(4-cyanophenyl)(methyl)carbamoyl]imidazo[1,2-a]pyrazin-3-yl}phenyl)amino]-2-methylpropyl}carbamate]",2990 nM
20,"CN(C(=O)c1cn2c(-c3ccc4[nH]ccc4c3)cnc2cn1)c1ccc(Cl)nc1 [Compound 301, N-(6-chloropyridin-3-yl)-3-(1H-indol-5-yl)-N-methylimidazo[1,2-a]pyrazine-6-carboxamide]",1200 nM
21,"COc1ccc(-c2ccc(N(C)C(=O)c3cn4c(-c5ccc(OC)cc5C)cnc4cn3)cn2)c(C)c1 [Compound 302, 3-(4-methoxy-2-methylphenyl)-N-[6-(4-methoxy-2-methylphenyl)pyridin-3-yl]-N-methylimidazo[1,2-a]pyrazine-6-carboxamide]",1850 nM
22,"COc1ccncc1N(C)C(=O)c1cn2c(-c3ccc(C(F)(F)F)cc3)cnc2cn1 [Compound 303, N-(4-methoxypyridin-3-yl)-N-methyl-3-[4-(trifluoromethyl)phenyl]imidazo[1,2-a]pyrazine-6-carboxamide]",1280 nM
23,"Cc1cc(N(C)C(=O)c2cn3c(-c4ccc(C(F)(F)F)cc4)cnc3cn2)cnc1Cl [Compound 304, N-(6-chloro-5-methylpyridin-3-yl)-N-methyl-3-[4-(trifluoromethyl)phenyl]imidazo[1,2-a]pyrazine-6-carboxamide]",452 nM
24,"O=C(c1cn2c(-c3ccc(C(F)(F)F)cc3)cnc2cn1)N1CCOc2cc(F)ccc21 [Compound 305, 7-fluoro-4-({3-[4-(trifluoromethyl)phenyl]imidazo[1,2-a]pyrazin-6-yl}carbonyl)-3,4-dihydro-2H-1,4-benzoxazine]",457 nM
